Columns and labels:
[1] = biological target: Recombinant human CD33 protein (Homo sapiens (Human), UniProt P20138); assay: CD33 competitive binding assay for HTS drug screen (fluorescent multivalent sialic acid probe)
Description: This is a competitive binding assay that uses recombinant CD33 immobilized to a plate and a fluorescently-labeled multivalent sialic acid analog as a probe. Binding of drug to the site on CD33 to which sialic acid binds is detected by reduced binding of the fluorescent probe. Recombinant human CD33 protein (for example Acro Biosystems cat #CD3-H5257) was added at a concentration of 10 μg/ml in 20 mM acetate buffer (pH5.5) to a black plastic plate (Corning 4510) and allowed to incubate overnight at 4° C. The next day, the wells were washed 3 times with PBS containing 0.02% Tween-20. This was followed by a 30-minute incubation with PBS containing 0.2% Tween-20 and 0.5% BSA to block non-specific binding to the well. This buffer is removed and replaced with 10 μl of the same buffer, which is also used as the assay buffer. The fluorescent multivalent sialic acid probe was prepared as a 4× concentration as follows. A biotinylated sialic acid analog A-375 was mixed with biotin-4-Fluorescein isothiocyanate (biotin-4-FITC) at a 3:1 molar ratio with final concentrations (4× stock) of 60 μM A-375 and 20 μM biotin-4-FITC. After these were mixed, 20 μM of neutravidin was added, which should form complexes consisting of neutravidin, fluorescein and sialic acid with an average complex consisting of 1 neutravidin, 1 FITC and 3 sialic acid analogs. The multimerization of the sialic acid analog is critical to the assay and improves the affinity of the sialic acid analog several orders of magnitude. A test compound, for example A-001, is added at 5 μl to the 10 μl assay buffer already in the well. After a brief incubation, 5 μl of the 4× stock solution of sialic acid complexes was added. The final concentration of the complexes was therefore 5 μM neutravidin, 15 μM A-375 and 5 μM FITC. The plate was incubated at room temperature for 30 mins and then washed with PBS containing 0.2% Tween-20. Binding of the sialic acid complex is very stable, with an off-rate of several days. Bound complex was then detected using a standard plate reader to quantify FITC fluorescence.

[2] = biological target: Recombinant Human Siglec-3/CD33 protein (His-CD33) (Homo sapiens (Human), UniProt P20138); assay: Differential scanning fluorimetry (DSF) thermal shift assay; assay type: binding
Description: In the DSF assay, as the temperature increases, the protein gets gradually unfolded, exposing hydrophobic regions in which a fluorescent dye binds causing the fluorescence signal to increase. The midpoint of the unfolding transitions is called the thermal melt (Tm) or denaturation temperature and the Tm was defined as the peak apex in the derivative curve. Here, the Tm temperature of CD33 in the presence and absence of A-001 at a concentration of 50 μM was examined.
Recombinant Human Siglec-3/CD33 protein was purchased from Acros (catalog no. CD3-H5226) and reagents used in this study are shown in the Table 1 below.
Lyophilized CD33 protein was received in 1 mg aliquots from Acros. The protein was diluted with 2.5 mL of sterile water to a concentration of 400 μg/mL (14.5 μM), aliquoted into 138 μL aliquots and stored as at −20° C. On the day of analysis, the protein was thawed and […] solution was diluted to […] using buffer containing 133 mM NaCl, 133 mM phosphate buffered solution and 13.9× Sypro Orange dye in water in a quantity to cover the amount of samples tested on the day of the analysis.
200 μM stock solutions of A-001 containing 0.2% DMSO in water was supplied by compound management in a 384-well plate format.
Sample matrix were prepared by adding 7.5 μL of the protein buffer stock solution followed by addition of 2.5 μL of the 200 μM compound solutions in 384-well PCR plates to give a final volume of 10 μL per well consisting of 0.5 μM CD33 protein, 100 mM phosphate buffered solution pH 7.4, 100 mM NaCl, 10× SYPRO orange dye and 50 μM compound concentration (final DMSO concentration ˜0.2%). Using the Applied Biosystems® Protein Thermal Shift software (algorithm version 1.3.), the denaturation temperature or thermal melt (Tm) of the unbound and ligand bound CD33 protein was automatically assigned and the difference in thermal melt (ΔTm D) was calculated using the derivative curve by the Protein Thermal Shift software.
Recombinant human CD33 protein (0.5 μM) was incubated under buffered conditions in the presence of SYPRO orange dye, a temperature gradient was applied and a thermogram was produced by monitoring the fluorescence. The Tm was defined as the peak apex in the derivative curve in the study. […] Addition of […] of A-001 (Blue lines) to the CD33 protein induced significant Tm increases (ΔTm D) of 12.2±0.7° C.

[3] = difference in thermal melt of CD33 protein (0.5 μM) with 50 μM compound
[4] = thermal melt shift of 0.5 μM CD33 protein with 50 μM compound

Chain of Recombinant Human Siglec-3/CD33 protein (His-CD33) (P20138 18-259): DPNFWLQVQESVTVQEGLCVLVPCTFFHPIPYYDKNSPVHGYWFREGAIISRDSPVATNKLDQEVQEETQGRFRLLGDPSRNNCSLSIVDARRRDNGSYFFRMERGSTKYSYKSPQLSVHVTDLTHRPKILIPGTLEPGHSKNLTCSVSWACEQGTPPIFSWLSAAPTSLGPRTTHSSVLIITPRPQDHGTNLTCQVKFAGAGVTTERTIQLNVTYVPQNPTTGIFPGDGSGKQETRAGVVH
Chain of Recombinant human CD33 protein (P20138 18-259): as above

SMILES	EC50 [1] [nM]	DSF (dTmD) [2, 3] [°C]	DSF (dTmD) [2, 4]
CC(=O)N[C@H]1[C@H]2O[C@](C(=O)O)(C/C=C/c3cccc(c3)[C@@H](NC(=O)C3CCCOC3)CCCCc3cc(cc(Cl)c3O)C(=O)NC[C@@H](O)[C@H]2O)C[C@@H]1O (stereo partly shown) [A-353]	19000	3.6	–
CC(=O)N[C@H]1[C@H]([C@H](O)[C@H](O)CNC(=O)c2cc(C)c(O)c(C)c2)O[C@@](C[C@H]2COCC3(CCN(C(=O)OC(C)(C)C)CC3)N2)(C(=O)O)C[C@@H]1O [A-231]	1410	5.2	–
Cc1cc2cc(C)c1OCCOC[C@@H](NC(=O)C1CCCOC1)COC/C=C/C[C@]1(C(=O)O)C[C@H](O)[C@@H](NC(=O)Cn3cc(C4CCCCC4)nn3)[C@@H](O1)[C@H](O)[C@H](O)CNC2=O (stereo partly shown) [A-341]	9980	2.7	–
CC(=O)N[C@H]1[C@H]([C@H](O)[C@H](O)CNC(=O)c2ccc(C(F)(F)F)c(C(F)(F)F)c2)O[C@@](CCN2CCOC[C@@]23CCN(C(=O)OC(C)(C)C)C3)(C(=O)O)C[C@@H]1O [A-167]	3340	–	7.9
CC(=O)N[C@H]1[C@H]([C@H](O)[C@H](O)CNC(=O)c2cc(C)c(O)c(C)c2)O[C@@](CCN2CCOC[C@@]23CCN(C(=O)OC(C)(C)C)C3)(C(=O)NS(C)(=O)=O)C[C@@H]1O [A-365]	37500	−0.3	–
CC(=O)N[C@H]1[C@H]([C@H](O)[C@H](O)CNC(=O)c2cc(C)c(O)c(C)c2)O[C@@](CCN2CCN(C)C[C@@]23CCN(C(=O)OC(C)(C)C)C3)(C(=O)O)C[C@@H]1O [A-010]	15	–	13.5
CC(=O)N[C@H]1[C@H]([C@H](O)[C@H](O)CNC(=O)c2cc(C)c(O)c(C)c2)O[C@@](C/C=C/c2cccc(CNC(=O)c3ccc4[nH]c(-c5cccn5-c5ncccn5)nc4c3)c2)(C(=O)O)C[C@@H]1O [A-252]	578	7.6	–
CC(=O)N[C@H]1[C@H]([C@H](O)[C@H](O)CNC(=O)c2cc(C)c(O)c(C)c2)O[C@@](CC2OC(C)(C)O[C@H]2c2ccc(C)c(N3CCCC3=O)c2)(C(=O)O)C[C@@H]1O (stereo partly shown) [A-319]	4220	2.8	–
COC(=O)[C@@]1(CCN2CCOC[C@@]23CCN(C(=O)OC(C)(C)C)C3)CCC[C@H](C[C@H](O)CNC(=O)c2cc(C)c3[nH]ccc3c2)O1 [A-207]	3750	5.0	–
CC(=O)N[C@H]1[C@H]([C@H](O)[C@H](O)CNC(=O)c2cc(C)c(O)c(C)c2)O[C@@](CCN2CCOC[C@@]23CCN(C(=O)N(C)C(C)C)C3)(C(=O)O)C[C@@H]1O [A-061]	235	–	7.5
CC(=O)N[C@H]1[C@H]([C@H](O)[C@H](O)CNC(=O)c2cc(Cl)[nH]n2)O[C@@](CCN2CCOC[C@@]23CCN(C(=O)OC(C)(C)C)C3)(C(=O)O)C[C@@H]1O [A-157]	80	–	10.3
CC(=O)N[C@H]1[C@H]([C@H](O)[C@H](O)CNC(=O)c2cc(C)c(O)c(C)c2)O[C@@](CCN2CCOC[C@@]23CCN(C(=O)C2CCCCC2(F)F)C3)(C(=O)O)C[C@@H]1O (stereo partly shown) [A-070]	31	–	12.0
CC(=O)N[C@H]1[C@H]([C@H](O)[C@H](O)CNC(=O)c2cc(C)c(O)c(C)c2)O[C@@](CCN2CCOC[C@@]23CCN(C(=O)OC(C)(C)C)C3)(C(=O)O)C[C@@]1(C)O [A-201]	1720	6.2	–
CC(=O)N[C@H]1[C@H]([C@H](O)[C@H](O)CNC(=O)c2cc(C)c(O)c(C)c2)O[C@@](CCN2CCOC[C@@]23CCN(C(=O)NC2(c4ccc(F)cc4)CCCC2)C3)(C(=O)O)C[C@@H]1O [A-057]	265	–	9.7
Cc1cc(C(=O)NC[C@@H](O)[C@@H](O)[C@@H]2O[C@@](C/C=C/c3cccc(CNC(=O)c4ccc5[nH]cnc5c4)c3)(C(=O)O)C[C@H](O)[C@H]2NC(=O)Cn2cc(C3CCCCC3)nn2)cc(C)c1O [A-280]	4900	3.8	–
CC(=O)N[C@H]1[C@H]([C@H](O)[C@H](O)CNC(=O)c2ccc3ncsc3c2)O[C@@](CCN2CCOC[C@@]23CCN(C(=O)OC(C)(C)C)C3)(C(=O)O)C[C@@H]1O [A-110]	30	–	12.2
CC(=O)N[C@H]1[C@H]([C@H](O)[C@H](O)CNC(=O)c2cc(C)c(O)c(C)c2)O[C@@](C/C=C/c2cccc(CNC(=O)c3ccc4[nH]ccc4c3)c2)(C(=O)O)C[C@@H]1O [A-242]	502	7.6	–
CC(=O)N[C@H]1[C@H]([C@H](O)[C@H](O)CNC(=O)c2cc(C)c(O)c(C)c2)O[C@@](CCN2CCOC[C@@]23CCN(C(=O)C2CCCC2)C3)(C(=O)O)C[C@@H]1O [A-060]	65	–	11.2
COC(=O)[C@@]1(CCN2CCOC[C@@]23CCN(C(=O)OC(C)(C)C)C3)CCC[C@H](C[C@H](O)CNC(=O)c2cc(C)c3[nH]ccc3c2)O1 [A-206, tert-butyl (S)-6-(2-((2S,6R)-6-((S)-2-hydroxy-3-(7-methyl-1H-indole-5-carboxamido)propyl)-2-(methoxycarbonyl)tetrahydro-2H-pyran-2-yl)ethyl)-9-oxa-2,6-diazaspiro[4.5]decane-2-carboxylate]	> 100000	0.1	–
CC(=O)N[C@H]1[C@H]([C@H](O)[C@H](O)CNC(=O)c2cc(C)c(O)c(C)c2)O[C@@](CCN2CCOC[C@@]23CCN(C(=O)OC(C)(C)C)C3)(C(N)=O)C[C@@H]1O [A-364]	> 100000	0.1	–
Cc1cc(C(=O)NC[C@@H](O)[C@@H](O)[C@@H]2O[C@@](C/C=C/c3cccc(CNC(=O)c4scnc4C)c3)(C(=O)O)C[C@H](O)[C@H]2NC(=O)Cn2cc(C3CCCCC3)nn2)cc(C)c1O [A-276]	2920	6.2	–
CC(=O)N[C@H]1[C@H]([C@H](O)[C@H](O)CNC(=O)c2cc(C)c(=O)n(C)c2)O[C@@](CCN2CCOC[C@@]23CCN(C(=O)OC(C)(C)C)C3)(C(=O)O)C[C@@H]1O [A-191]	163	–	9.4
CC(=O)NC1[C@H]([C@H](O)[C@H](O)CNC(=O)c2cc(C)c(O)c(C)c2)O[C@@](CC(=O)N2CCOC[C@]23CCN(C(=O)OC(C)(C)C)C3)(C(=O)O)C[C@@H]1O (stereo partly shown) [A-222]	–	9.3	–
COC(=O)[C@@]1(CCN2CCOC[C@@]23CCN(C(=O)OC(C)(C)C)C3)C[C@H](O)[C@@H](NC(C)=O)[C@H]([C@H](O)[C@H](O)CNC(=O)c2cc(C)c(O)c(C)c2)O1 [A-002]	–	–	−0.3

From patent publication US20250313574A1, “SIALIC ACID DERIVATIVES AND METHODS OF USING SAME” (EISAI R&D MANAGEMENT CO., LTD., priority 2022, published 2025)
